The source of these data is ChEMBL document CHEMBL3588786, “Synthesis and Biological evaluation of novel 4β-[(5-substituted)-1,2,3,4-tetrazolyl] podophyllotoxins as anticancer compounds” (Bioorg Med Chem Lett, 2015).

Molecules are shown by their SMILES. The source made the active and inactive calls. The rule behind the calls is not given here.

Test [1] relates to A549. Kind of test: Induction of cell cycle arrest in human A549 cells assessed as accumulation at G2/M phase at 5 uM after 24 hrs by flow cytometry. It counts as functional. On the technique in general: Flow cytometry measures light scatter and fluorescence of single cells or particles in a stream.
For the next test, the system named is MCF7. The experiment in a line: Cytotoxicity against human MCF7 cells assessed as cell viability by SRB assay. It counts as functional, cell-based.
Test [2] relates to A549. Kind of test: Induction of cell cycle arrest in human A549 cells assessed as accumulation at S phase at 5 uM after 24 hrs by flow cytometry. The format is functional.
Test [3] has as its system A549. Kind of test: Cytotoxicity against human A549 cells assessed as cell viability by SRB assay. It counts as functional, cell-based. A general note: In SRB staining, fixed cells bind dye roughly in proportion to their protein.
Test [4] concerns A549. The experiment in a line: Induction of cell cycle arrest in human A549 cells assessed as accumulation at G1 phase at 5 uM after 24 hrs by flow cytometry. It counts as functional.
The next test concerns the target Tubulin (Bos taurus) (UniProt Q6B856+Q862F3). The experiment in a line: Inhibition of bovine brain tubulin polymerization assessed as increase in fluorescence intensity at 5 uM relative to control.
The next test concerns SK-N-SH. Kind of test: Cytotoxicity against human SK-N-SH cells assessed as cell viability by SRB assay. The format is functional, cell-based.
The next test concerns HeLa. Kind of test: Cytotoxicity against human HeLa cells assessed as cell viability by SRB assay. The format is functional, cell-based.
Test [5] deals with A549. The experiment in a line: Induction of cell cycle arrest in human A549 cells assessed as accumulation at G0 phase at 5 uM after 24 hrs by flow cytometry. The format is functional.
Test [6] concerns A549. Kind of test: Antimitotic activity against human A549 cells at 5 uM after 12 hrs by flow cytometry. It counts as functional, cell-based.

For the molecule `COc1cc([C@@H]2c3cc4c(cc3[C@H](O)[C@H]3COC(=O)[C@H]23)OCO4)cc(OC)c1OC` [PODOFILOX], the Activity came out at 60.77% with A549 [1], 10.03% with A549 [2], 19.71% with A549 [4] and 9.48% with A549 [5]. For the same molecule, the IC50 (in general, the concentration needed to halve the response being measured) with MCF7 amounted to 3.34 µM; in the test with A549 [3] it was 2.55 µM; with SK-N-SH it was 7.92 µM; with HeLa, 1.92 µM. The inhibition (commonly the drop in the measured response relative to a control, in per cent) on Tubulin (Bos taurus) amounted to 93.9%.

Take `COc1cc([C@@H]2c3cc4c(cc3[C@@H](n3nnnc3C(=O)OCc3ccccc3)[C@H]3COC(=O)[C@H]23)OCO4)cc(OC)c1O`: the Activity in the test with A549 [1] was determined as 63.19%; with A549 [2] it was 8.25%; in the test with A549 [4], 19.95%; with A549 [5], 8.61%. In addition, the 50% inhibitory concentration (IC50) in the test on MCF7 came to 9.44 µM; with A549 [3] it was 2.98 µM; with SK-N-SH, 6.16 µM; in the test on HeLa it was 4.77 µM. Besides, on Tubulin (Bos taurus), the inhibition worked out at 29.8%.

For `COC(=O)c1nnnn1[C@@H]1c2cc3c(cc2[C@@H](c2cc(OC)c(O)c(OC)c2)[C@H]2C(=O)OC[C@@H]21)OCO3`, the Activity amounted to 68.48% with A549 [1], 6.38% in the test with A549 [2], 15.18% in the test on A549 [4] and 9.96% in the test on A549 [5]. In addition, the IC50 came out at 5.27 µM in the test on MCF7, 2.44 µM with A549 [3], 5.64 µM with SK-N-SH and 3.95 µM in the test with HeLa. Moreover, on Tubulin (Bos taurus), the inhibition was 28.3%.

Consider `COc1cc([C@@H]2c3cc4c(cc3[C@@H](n3nnnc3S(=O)(=O)c3ccc(C)cc3)[C@H]3COC(=O)[C@H]23)OCO4)cc(OC)c1O`, for which the Activity came to 62.48% in the test with A549 [1], 7.28% in the test with A549 [2], 19.28% in the test with A549 [4] and 11% in the test with A549 [5]. Further, the concentration for half-maximal inhibition (IC50) stood at 5.29 µM in the test with MCF7, 3.29 µM in the test with A549 [3], 3.44 µM with SK-N-SH and 3.05 µM in the test on HeLa. In addition, the inhibition on Tubulin (Bos taurus) was 22.5%.

Turning to `COc1cc([C@@H]2c3cc4c(cc3[C@@H](n3nnnc3C(=O)c3ccccc3)[C@H]3COC(=O)[C@H]23)OCO4)cc(OC)c1O`, the Activity in the test on A549 [1] is reported as 63.93%; in the test on A549 [2] it was 6.49%; in the test with A549 [4], 19.89%; in the test with A549 [5], 9.66%. The IC50 with MCF7 was 7.02 µM; in the test on A549 [3] it was 2.71 µM; with SK-N-SH, 3.49 µM; in the test on HeLa it was 3.61 µM. On Tubulin (Bos taurus), the inhibition was found to be 11.5%. The result in the test on A549 [6] was Active.

Regarding `CCOC(=O)c1nnnn1[C@@H]1c2cc3c(cc2[C@@H](c2cc(OC)c(O)c(OC)c2)[C@H]2C(=O)OC[C@@H]21)OCO3`, the Activity with A549 [1] was found to be 74.86%; in the test with A549 [2] it was 6%; in the test on A549 [4] it was 11.83%; in the test with A549 [5], 7.3%. For the same molecule, the IC50 in the test with MCF7 worked out at 12.4 µM; in the test on A549 [3] it was 6.49 µM; in the test with SK-N-SH, 25.9 µM; in the test on HeLa, 29.1 µM. For the same molecule, the inhibition at Tubulin (Bos taurus) came to 2.68%. Also, in the test with A549 [6], the outcome was Active.

With `COc1cc([C@@H]2c3cc4c(cc3[C@@H](n3nnnc3S(=O)(=O)c3ccc(C)cc3)[C@H]3COC(=O)[C@H]23)OCO4)cc(OC)c1OC`, the Activity in the test with A549 [1] was found to be 54.73%; with A549 [2] it was 5.22%; with A549 [4], 20.09%; in the test with A549 [5], 19.96%. Besides, the IC50 stood at 6.99 µM with MCF7, 2.89 µM with A549 [3], 5.31 µM in the test with SK-N-SH and 3.15 µM in the test with HeLa. The inhibition at Tubulin (Bos taurus) was 0.73%. Besides, the outcome in the test on A549 [6] was Active.

On to `COc1cccc2c1C(=O)c1c(O)c3c(c(O)c1C2=O)C[C@@](O)(C(=O)CO)C[C@@H]3O[C@H]1C[C@H](N)[C@H](O)[C@H](C)O1` [DOXORUBICIN], for which the half-inhibitory concentration (IC50) came out at 12.3 µM in the test with MCF7, 6.13 µM with A549 [3], 7.36 µM in the test on SK-N-SH and 10.8 µM in the test on HeLa.

Consider `COc1cc([C@@H]2c3cc4c(cc3[C@@H](n3nnnc3C(=O)OCc3ccccc3)[C@H]3COC(=O)[C@H]23)OCO4)cc(OC)c1OC`, for which the Activity in the test on A549 [1] was found to be 65.34%; in the test with A549 [2], 6.61%; in the test with A549 [4], 17.77%; with A549 [5], 10.28%. Moreover, the IC50 in the test with MCF7 worked out at 4.85 µM; with A549 [3], 2.48 µM; in the test on SK-N-SH, 4.58 µM; in the test on HeLa, 4.01 µM. The inhibition on Tubulin (Bos taurus) turned out to be 57.5%.

For the molecule `CCOC(=O)c1nnnn1[C@@H]1c2cc3c(cc2[C@@H](c2cc(OC)c(OC)c(OC)c2)[C@H]2C(=O)OC[C@@H]21)OCO3`, the Activity in the test with A549 [1] is 65.6%; in the test with A549 [2], 5.52%; with A549 [4] it was 16.44%; in the test with A549 [5], 12.44%. Besides, the 50% inhibitory concentration (IC50) was 7.47 µM with MCF7, 2.4 µM in the test on A549 [3], 3.61 µM in the test with SK-N-SH and 4.76 µM with HeLa. Also, the inhibition on Tubulin (Bos taurus) is 99.2%.

Consider `CC(=O)O[C@H]1C(=O)[C@@]2(C)[C@H]([C@H](OC(=O)c3ccccc3)[C@]3(O)C[C@H](OC(=O)[C@H](O)[C@@H](NC(=O)c4ccccc4)c4ccccc4)C(C)=C1C3(C)C)[C@]1(OC(C)=O)CO[C@@H]1C[C@@H]2O` [PACLITAXEL], for which the Activity with A549 [1] was 70.48%; in the test with A549 [2], 6.01%; with A549 [4], 13.7%; in the test with A549 [5], 9.81%.

`COC(=O)Nc1nc2ccc(C(=O)c3cccs3)cc2n1C`: at Tubulin (Bos taurus), the inhibition stood at 65.3%.

As for `COc1cc([C@@H]2c3cc4c(cc3[C@@H](n3nnnc3C(=O)c3ccccc3)[C@H]3COC(=O)[C@H]23)OCO4)cc(OC)c1OC`, the Activity in the test with A549 [1] came to 69.37%; in the test with A549 [2], 5.73%; with A549 [4], 13.88%; with A549 [5], 11.01%. In addition, the concentration for half-maximal inhibition (IC50) was found to be 6.89 µM with MCF7, 4.29 µM in the test with A549 [3], 4.68 µM with SK-N-SH and 4.76 µM in the test with HeLa. For the same molecule, the inhibition on Tubulin (Bos taurus) came to 72.5%.

Turning to `COC(=O)c1nnnn1[C@@H]1c2cc3c(cc2[C@@H](c2cc(OC)c(OC)c(OC)c2)[C@H]2C(=O)OC[C@@H]21)OCO3`, the Activity in the test with A549 [1] was 45.43%; with A549 [2] it was 4.61%; with A549 [4], 30.01%; in the test on A549 [5], 19.92%. In addition, the IC50 turned out to be 6.97 µM with MCF7, 3.11 µM in the test on A549 [3], 6.5 µM in the test with SK-N-SH and 5.25 µM with HeLa. Besides, the inhibition on Tubulin (Bos taurus) was 12.4%. Besides, the result in the test on A549 [6] was Active.
